Reference: the NIST ThermoML archive (doi:10.1021/je800591u)
Numbers after ± are expanded uncertainties.

Conditions: Liquid, Ebulliometric method (Recirculating still)

Row | SMILES | vapor or sublimation pressure (288.15 K) [kPa] | vapor or sublimation pressure (303.15 K) [kPa] | vapor or sublimation pressure (318.15 K) [kPa] | vapor or sublimation pressure (333.15 K) [kPa] | vapor or sublimation pressure (348.15 K) [kPa] | vapor or sublimation pressure (363.15 K) [kPa]
1 | FC(C(F)(F)F)C(F)(F)F [1,1,1,2,3,3,3-heptafluoropropane] | 335 ± 14 | 529 ± 14 | 804 ± 14 | 1176 ± 15 | 1664 ± 16 | 2294 ± 17
2 | C=C(C)C [2-methylpropene] | 223 ± 14 | 352 ± 14 | 536 ± 14 | 785 ± 14 | 1107 ± 15 | 1515 ± 15
